# Source: patent US20240374573A1, “IMIDAZOLE CONTAINING COMPOUNDS, DERIVATIVES THEREFORE, AND USES THEREOF” (AglaeaPharma Inc., priority 2023, published 2024)
# Read-outs that look alike come from different tables or passages of the source.
# How the values were obtained:
# [1] = target: T1, α2AAR (Homo sapiens, UniProt P08913); assay: α2AAR binding assay ([3H]-RX 821002 radioligand); settings: [3H]-RX 821002 0.5 nM, HEK293 membranes; read-out: α2A affinity (Ki)
# T1 construct: host or cells: HEK293 (membranes)
# T1 sequence (P08913 1-465): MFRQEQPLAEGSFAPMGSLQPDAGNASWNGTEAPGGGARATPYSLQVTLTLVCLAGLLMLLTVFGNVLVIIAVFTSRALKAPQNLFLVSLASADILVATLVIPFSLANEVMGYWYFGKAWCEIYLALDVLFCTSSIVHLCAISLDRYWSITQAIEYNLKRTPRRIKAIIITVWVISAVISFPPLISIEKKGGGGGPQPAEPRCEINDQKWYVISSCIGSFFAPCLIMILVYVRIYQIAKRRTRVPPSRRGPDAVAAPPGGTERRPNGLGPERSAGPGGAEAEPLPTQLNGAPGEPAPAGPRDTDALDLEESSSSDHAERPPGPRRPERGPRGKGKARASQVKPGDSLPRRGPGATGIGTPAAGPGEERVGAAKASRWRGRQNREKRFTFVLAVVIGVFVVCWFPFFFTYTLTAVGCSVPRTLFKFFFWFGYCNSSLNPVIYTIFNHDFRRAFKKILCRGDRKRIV
# Protocol: The α2AR Binding Assay was conducted using a stable HEK293 cell line, specifically constructed by WuXi AppTec for targeting α2AAR. […] Both the assay and wash buffers consist of 50 mM Tris-HCl at a pH of 7.4 (Tris base, Sigma, T1503-1 KG).
# The procedure initiated with the preparation of test compounds and a reference compound, yohimbine (Sigma, Y3125), through an 8-point 4-fold serial dilution, transferring 1 μL of each to the assay plate. […] After scaling, the plates were agitated at room temperature for one hour. Subsequently, the Unifilter-96 GF/C filter plates were pre-soaked with 0.3% PEI (Sigma, P3143) for at least half an hour. The reaction mixtures were then filtered and washed four times with cold wash buffer using a Perkin Elmer Cell harvester. Post-filtration, the plates were dried at 50° C. for one hour. […] The top of the plates was then sealed with TopSeal-A sealing film. The trapped 3H was quantified using a Perkin Elmer MicroBeta2 Reader. […] Finally, the data were analyzed with Prism 5.0 software, employing the “log (inhibitor) vs. response-Variable slope” model for data fitting. This comprehensive process ensured precise assessment of the binding affinity of compounds to the α2AAR.
# [2] = target: T2, α2AAR (α2A-adrenergic receptor) (Homo sapiens, UniProt P08913); assay: α2AAR FLIPR assay (agonist activity); format: cell-based
# T2 construct: expressed in transfected cells; host or cells: HEK293
# T2 sequence (P08913 1-465): T1 sequence (P08913 1-465)
# Protocol: This experimental protocol involved cell seeding and a FLIPR assay using the α2AAR (α2A-adrenergic receptor) cell line hosted in HEK293 cells. […] On Day 1, the cell seeding process started with the removal of the culture medium, followed by rinsing the cells with DPBS (21-031-CVC, Corning). […] The cells were detached, resuspended in growth media, and centrifuged at room temperature at 1000 rpm for 5 minutes. After discarding the supernatant, the cell pellet was resuspended in growth media to a concentration of 10× 10^5 cells per mL. This suspension was added to 384-well plates (19-Jul-38, Greiner) at 20 μL per well and incubated overnight at 37° C. in 5% CO2.
# A 250 mM Probenecid solution was prepared in this buffer. The Fluo-4 Direct™ Loading Buffer was made by dissolving Fluo-4 Direct™ crystals (F10471, Invitrogen) in the FLIPR Assay Buffer and adding Probenecid. The buffer was then vortexed and allowed to stand for over 5 minutes, shielded from light. For the FLIPR procedure, testing compounds for agonist activite were serially diluted and transferred to a 384-well compound plate (25-Jan-39, Greiner). The cell plate was then treated with 2× Fluo-4 Direct™ loading buffer and incubated for 50 minutes at 37° C. in a 5% CO2 atmosphere, followed by 10 minutes at room temperature. Subsequently, the FLIPR assay buffer was added to the compound plate, which is then centrifuged.
# The cell plate was analyzed in the FLIPR Tetra+ System for fluorescence signals. For the agonist test, reference compounds were added to the cell plates, and fluorescence was measured. The “Max-Min” calculation began from Read 1 to the maximum allowed. The data were analyzed using Prism software to calculate activation percentage for agonists and inhibition percentage for antagonists. The results were then fitted using specific models to determine EC50 for agonists.
# The experimental protocol utilized various reagents and apparatus, including Penicillin/Streptomycin (100×) (SV30010, Hyclone), Poly-L-lysine hydrobromide (P1399, Sigma), and different types of 384-well plates such as the 384-Well PP 2.0 Microplate (PP-0200, LABCYTE) and 384 well Low Dead Volume Microplate (LP-0200, LABCYTE). The use of specific reference compounds like UK14304 was also integral to the assay.
# [3] = FLIPR, α2AAR cell line hosted in HEK293 cells, read-out: α2A agonist activity (EC50)
# [4] = α2A agonist activity (EC50, nM)
SMILES,Ki [1] [nM],"EC50 [2, 3] [nM]","EC50 [2, 4] [nM]"
Cc1cccc(C(c2cccc(C(=O)NC3CCOCC3)c2)c2c[nH]cn2)c1C (racemic) [compound 121],10 to 50,< 10,–
Cc1cccc(C(Cc2ccc(NS(C)(=O)=O)cc2)c2c[nH]cn2)c1C (racemic) [compound 136],< 10,< 10,–
Cc1cccc(C(Cc2ccc(C(N)=O)c(F)c2)c2c[nH]cn2)c1C (racemic) [compound 156],< 10,< 10,–
"CONC(=O)c1cccc(C(c2c[nH]cn2)c2cccc(C)c2C)c1 (single isomer, unassigned) [1-A]",–,> 1000,–
"Cc1cccc(C(c2cccc(C(N)=O)c2)c2c[nH]cn2)c1C (single isomer, unassigned) [5-A]",–,> 1000,–
"Cc1cccc(C(c2cccc(NC(=O)CC#N)c2)c2c[nH]cn2)c1C (single isomer, unassigned) [10-A]",–,> 1000,–
"Cc1cccc(C(c2cccc(NC(=O)CC#N)c2)c2c[nH]cn2)c1C (single isomer, unassigned) [10-B]",10 to 50,10 to 50,–
"CNC(=O)NCCOCCOCC(c1c[nH]cn1)c1cccc(C)c1C (single isomer, unassigned) [17-A]",–,> 1000,–
"CNC(=O)NCCOCCOCC(c1c[nH]cn1)c1cccc(C)c1C (single isomer, unassigned) [17-B]",10 to 50,10 to 50,–
"Cc1cccc(C(c2cccc(NC(=O)CCC#N)c2)c2c[nH]cn2)c1C (single isomer, unassigned) [43-B]",10 to 50,10 to 50,–
"Cc1cccc(C(c2cccc(NS(C)(=O)=O)c2)c2c[nH]cn2)c1C (single isomer, unassigned) [44-B]",< 10,10 to 50,–
"Cc1cccc(C(c2cccc(C(=O)NC3CCOCC3)c2)c2c[nH]cn2)c1C (single isomer, unassigned) [121-A]",–,> 1000,–
"Cc1cccc(C(Cc2ccc(C(C)C(=O)O)cc2)c2c[nH]cn2)c1C (single isomer, unassigned) [174-A]",–,> 1000,–
"Cc1cccc(C(Cc2ccc(C(C)C(=O)O)cc2)c2c[nH]cn2)c1C (single isomer, unassigned) [174-C]",–,250 to 1000,–
Cc1cccc(C(c2cccc(C(=O)NCCO)c2)c2c[nH]cn2)c1C (stereo not shown) [compound 2],–,10 to 50,–
COCCOCCNC(=O)c1cccc(C(c2c[nH]cn2)c2cccc(C)c2C)c1 (stereo not shown) [compound 3],–,10 to 50,–
Cc1cccc(C(c2cccc(OCCNC(=O)Nc3ccncn3)c2)c2c[nH]cn2)c1C (stereo not shown) [compound 4],–,50 to 250,–
Cc1cccc(C(c2cccc(C(N)=O)c2)c2c[nH]cn2)c1C (stereo not shown) [compound 5],–,10 to 50,–
CNC(=O)c1cccc(C(c2c[nH]cn2)c2cccc(C)c2C)c1 (stereo not shown) [compound 6],–,–,10 to 50

SMILES,Ki [1] [nM],"EC50 [2, 3] [nM]","EC50 [2, 4] [nM]"
CONC(=O)c1cccc(C(c2c[nH]cn2)c2cccc(O)c2C)c1 (stereo not shown) [compound 7],–,250 to 1000,–
CONC(=O)c1cccc(C(c2c[nH]cn2)c2cccc(C)c2C)c1O (stereo not shown) [compound 8],–,10 to 50,–
Cc1cccc(C(c2c[nH]cn2)c2cccc(C(N)=O)c2O)c1C (stereo not shown) [compound 9],–,10 to 50,–
Cc1cccc(C(c2cccc(NC(=O)CC#N)c2)c2c[nH]cn2)c1C (stereo not shown) [compound 10],–,10 to 50,–
Cc1cccc(C(c2cccc(C(=O)O)c2)c2c[nH]cn2)c1C (stereo not shown) [compound 11],–,250 to 1000,–
Cc1cccc(C(c2ccc(C(=O)O)cc2)c2c[nH]cn2)c1C (stereo not shown) [compound 12],–,> 1000,–
Cc1cccc(C(c2ccc(O)cc2)c2c[nH]cn2)c1C (stereo not shown) [compound 13],–,> 1000,–
CNC(=O)Nc1ccc(C(c2c[nH]cn2)c2cccc(C)c2C)cc1 (stereo not shown) [compound 14],–,> 1000,–
COCCOCCOCCOCCOCCOc1ccc(C(c2c[nH]cn2)c2cccc(C)c2C)cc1 (stereo not shown) [compound 15],–,> 1000,–
COCCOCCOCCOCC(c1c[nH]cn1)c1cccc(C)c1C (stereo not shown) [compound 16],–,10 to 50,–
CNC(=O)NCCOCCOCC(c1c[nH]cn1)c1cccc(C)c1C (stereo not shown) [compound 17],–,10 to 50,–
Cc1cccc(C(COCCOCCNS(C)(=O)=O)c2c[nH]cn2)c1C (stereo not shown) [compound 18],–,10 to 50,–
Cc1cccc(C(COCCOCCN)c2c[nH]cn2)c1C (stereo not shown) [compound 19],–,50 to 250,–
COCCOCCOCCOCCOCCOCCCC(c1c[nH]cn1)c1cccc(C)c1C (stereo not shown) [compound 21],–,> 1000,–
Cc1cccc(C(c2cccc(C(=O)N3CCOCC3)c2)c2c[nH]cn2)c1C (stereo not shown) [compound 23],–,250 to 1000,–
CNCCOCCOCC(c1c[nH]cn1)c1cccc(C)c1C (stereo not shown) [compound 24],–,–,250 to 1000
CC(=O)NCCOCCOCC(c1c[nH]cn1)c1cccc(C)c1C (stereo not shown) [compound 25],–,50 to 250,–
Cc1cccc(C(c2cccc(C(=O)N(C)C)c2)c2c[nH]cn2)c1C (stereo not shown) [compound 33],–,50 to 250,–
Cc1cccc(C(c2c[nH]cn2)c2ccccc2C(N)=O)c1C (stereo not shown) [compound 34],–,> 1000,–

SMILES,Ki [1] [nM],"EC50 [2, 3] [nM]","EC50 [2, 4] [nM]"
CONC(=O)c1cccc(C(c2c[nH]cn2)c2cccc(Cl)c2Cl)c1 (stereo not shown) [compound 35],–,50 to 250,–
CONC(=O)c1cccc(C(c2c[nH]cn2)c2cccc(Cl)c2C)c1 (stereo not shown) [compound 36],–,50 to 250,–
COCCOCCOCC(c1c[nH]cn1)c1cccc(C)c1C (stereo not shown) [compound 37],–,50 to 250,–
Cc1cccc(C(c2c[nH]cn2)c2cccc(C(N)=O)c2Cl)c1C (stereo not shown) [compound 38],–,10 to 50,–
Cc1cccc(C(c2cccc(N)c2)c2c[nH]cn2)c1C (stereo not shown) [compound 39],–,50 to 250,–
CONC(=O)c1cccc(C(c2c[nH]cn2)c2cccc(C(F)(F)F)c2C)c1 (stereo not shown) [compound 52],–,250 to 1000,–
Cc1cccc(C(c2cccc(Nc3ccccn3)c2)c2c[nH]cn2)c1C (stereo not shown) [compound 59],–,50 to 250,–
Cc1cccc(C(c2c[nH]cn2)c2cccc(S(N)(=O)=O)c2O)c1C (stereo not shown) [compound 150],–,50 to 250,–
Cc1cccc(C(CN2CCC(NS(C)(=O)=O)CC2)c2c[nH]cn2)c1C (stereo not shown) [compound 168],–,50 to 250,–
Cc1cccc(C(c2cccc(NC(=O)C3C4CC5CC(C4)CC3C5)c2)c2c[nH]cn2)c1C (stereo not shown) [compound 170],–,50 to 250,–
Cc1cccc(C(c2cccc(NS(=O)(=O)C[C@@H]3CCCO3)c2)c2c[nH]cn2)c1C (stereo partly shown) [compound 172],–,10 to 50,–
Cc1cccc(C(c2cccc(NS(=O)(=O)CC3CCCCO3)c2)c2c[nH]cn2)c1C (stereo not shown) [compound 173],–,10 to 50,–
Cc1cccc(C(c2cccc(NC(=O)CC3CCCCC3)c2)c2c[nH]cn2)c1C (stereo not shown) [compound 178],–,10 to 50,–
Cc1cccc(C(c2cccc(NC3(C)COC3)c2)c2c[nH]cn2)c1C (stereo not shown) [compound 185],–,50 to 250,–
Cc1cscc1C(c1cccc(NS(C)(=O)=O)c1)c1c[nH]cn1 (stereo not shown) [compound 403],–,50 to 250,–
Cc1cccc(C(Cc2ccc(NS(C)(=O)=O)cc2)C2=NCCN2)c1C (stereo not shown) [compound 518],50 to 250,–,–
COCCOCc1cccc(Cl)c1NC1=NCCN1 [compound 520],250 to 1000,–,–
CONC(=O)c1ccc2ccccc2c1Nc1ccncc1 [compound 601],–,50 to 250,–
COCCOCCOCCOCCOCCc1ccc2ccccc2c1Nc1ccncc1 [compound 602],–,50 to 250,–
